Tests used:
[1] = system: CD11b; assay: Human whole blood CD11b up-regulation assay; assay type: cell-based; conditions: Homo sapiens, 2 nM human C5a, CD15+ granulocytes, read-out: hCD11b IC50
Summary of the method: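 Flow cytometric read-out: CD11b median fluorescence intensity of CD15+ granulocytes, 10,000 events. Stimulus was 2 nM human C5a for 15 min at room temperature, following 10 min compound exposure in 1% DMSO in fresh sodium-heparin whole blood; staining done on ice and erythrocytes lysed.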

[2] = molecular target: human C5aR (Homo sapiens (Human), UniProt P21730); assay: FLIPR assay: inhibition of C5a-mediated calcium mobilization; assay type: cell-based; conditions: stable cell line over expressing human C5aR & Gα15, human C5a at EC50 (0.1-0.25 nM)
human C5aR, sequence (P21730 whole entry): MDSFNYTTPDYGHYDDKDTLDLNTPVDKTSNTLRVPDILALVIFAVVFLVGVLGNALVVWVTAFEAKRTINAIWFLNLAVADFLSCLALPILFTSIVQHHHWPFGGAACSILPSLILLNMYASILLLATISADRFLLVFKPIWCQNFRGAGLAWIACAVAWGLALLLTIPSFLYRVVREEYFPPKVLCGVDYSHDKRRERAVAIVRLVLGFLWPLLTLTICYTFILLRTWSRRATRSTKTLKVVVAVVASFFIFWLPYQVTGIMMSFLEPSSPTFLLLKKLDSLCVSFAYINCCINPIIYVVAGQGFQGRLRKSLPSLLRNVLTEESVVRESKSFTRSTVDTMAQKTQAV
Summary of the method: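 Compounds were added for 30 minutes at room temperature (1% DMSO) ahead of C5a stimulation. Before this, cells were dye-loaded for 1 h at 37° C: calcium 5 with 2.5 mM probenecid in HBSS, 20 mM HEPES, 0.1% BSA. Cells co-express human C5aR and Gα15; read-out is FLIPR Tetra calcium flux.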

Row | IC50 [1] [nM] | IC50 [2] [nM] | SMILES
1 | 302 | 22 | CCc1cccc(CC)c1-c1cc(C)c2c(n1)CCN(c1cc(C(C)C)ccc1C)C2 [Example 41-J, 2-(2,6-diethylphenyl)-6-(5-isopropyl-2-methylphenyl)-4-methyl-5,6,7,8-tetrahydro-1,6-naphthyridine]
2 | 2120 | 14 | [2H]C1([2H])c2c(C)cc(-c3c(CC)cccc3CC)nc2CCN1c1c(Cl)c(C2CC2)nn1C [Example 42-I, 6-(4-chloro-3-cyclopropyl-1-methyl-1H-pyrazol-5-yl)-2-(2,6-diethylphenyl)-4-methyl-5,6,7,8-tetrahydro(5,5-^2H2)-1,6-naphthyridine]
3 | 188 | 38 | [2H]C1([2H])c2c(C)cc(-c3cccc4[nH]cc(C)c34)nc2CCN1c1c(C)cccc1C [Example 44-E, 6-(2,6-dimethylphenyl)-4-methyl-2-(3-methyl-1H-indol-4-yl)-5,6,7,8-(5,5-^2H2)tetrahydro-1,6-naphthyridine]
4 | 583 | 27 | [2H]C1([2H])c2c(C)cc(-c3c(C)ccc4[nH]ncc34)nc2CCN1c1cc(OC)ccc1C [Example 45, 6-(5-Methoxy-2-methylphenyl)-4-methyl-2-(5-methyl-1H-indazol-4-yl)-5,6,7,8-tetrahydro(5,5-^2H2)-1,6-naphthyridine]
5 | 1990 | 20 | Cc1cc(-c2c(C(C)C)ccc3[nH]ncc23)nc2c1CN(c1cc(C3CC3)nn1C)CC2 [Example 46-A, 6-(3-Cyclopropyl-1-methyl-1H-pyrazol-5-yl)-2-(5-isopropyl-1H-indazol-4-yl)-4-methyl-5,6,7,8-tetrahydro-1,6-naphthyridine]
6 | 224 | 42 | Cc1cc(-c2c(C(C)C)ccc3[nH]ncc23)nc2c1CN(c1c(Cl)c(C3CC3)nn1C)CC2 [Example 46-B, 6-(4-Chloro-3-cyclopropyl-1-methyl-1H-pyrazol-5-yl)-2-(5-isopropyl-1H-indazol-4-yl)-4-methyl-5,6,7,8-tetrahydro-1,6-naphthyridine]
7 | 1420 | 56 | [2H]C1([2H])c2c(C)cc(-c3cccc4[nH]cc(C)c34)nc2CCN1c1c(C)nn(CC)c1C [Example 47-B, 6-(1-Ethyl-3,5-dimethyl-1H-pyrazol-4-yl)-4-methyl-2-(3-methyl-1H-indol-4-yl)-5,6,7,8-tetrahydro(5,5-^2H2)-1,6-naphthyridine]
8 | 178 | 1 | Cc1ccc(C(C)C)cc1N1CCc2nc(-c3cccc4[nH]cc(C)c34)nc(N3CCN(CC(N)=O)C[C@H]3C)c2C1 [Example 52-C, (R)-2-(4-(6-(5-Isopropyl-2-methylphenyl)-2-(3-methyl-1H-indol-4-yl)-5,6,7,8-tetrahydropyrido[4,3-d]pyrimidin-4-yl)-3-methylpiperazin-1-yl)acetamide]
9 | 36 | 3 | CO[C@H]1CCN(c2nc(-c3c(C)ccc4[nH]nc(C)c34)nc3c2CN(c2c(Cl)c(C4CC4)nn2C)CC3)CC1(C)C [Example 55-L, (S)-6-(4-Chloro-3-cyclopropyl-1-methyl-1H-pyrazol-5-yl)-2-(3,5-dimethyl-1H-indazol-4-yl)-4-(4-methoxy-3,3-dimethylpiperidin-1-yl)-5,6,7,8-tetrahydropyrido[4,3-d]pyrimidine]
10 | 15 | 1 | CO[C@@H]1CCN(c2nc(-c3c(C)ccc4[nH]nc(C)c34)nc3c2CN(c2c(Cl)c(C4CC4)nn2C)CC3)[C@H](C)C1 [Example 55-M, 6-(4-chloro-3-cyclopropyl-1-methyl-1H-pyrazol-5-yl)-2-(3,5-dimethyl-1H-indazol-4-yl)-4-((2R,4R)-4-methoxy-2-methylpiperidin-1-yl)-5,6,7,8-tetrahydropyrido[4,3-d]pyrimidine]
11 | 12 | 6 | CO[C@@H]1CCN(c2nc(-c3c(C)ccc4[nH]nc(C)c34)nc3c2CN(c2c(Cl)c(C(F)(F)F)nn2C)CC3)CC1(C)C [Example 55-N, (R)-6-(4-chloro-1-methyl-3-(trifluoromethyl)-1H-pyrazol-5-yl)-2-(3,5-dimethyl-1H-indazol-4-yl)-4-(4-methoxy-3,3-dimethylpiperidin-1-yl)-5,6,7,8-tetrahydropyrido[4,3-d]pyrimidine]
12 | 6 | 1 | CO[C@H]1CCN(c2nc(-c3c(C)ccc4[nH]nc(C)c34)nc3c2CN(c2c(F)c(C4CC4)nn2C)CC3)CC1(C)C [Example 56-C, (S)-6-(3-cyclopropyl-4-fluoro-1-methyl-1H-pyrazol-5-yl)-2-(3,5-dimethyl-1H-indazol-4-yl)-4-(4-methoxy-3,3-dimethylpiperidin-1-yl)-5,6,7,8-tetrahydropyrido[4,3-d]pyrimidine]
13 | 11 | 1 | CO[C@@H]1CCN(c2nc(-c3c(C)ccc4[nH]nc(C)c34)nc3c2CN(c2c(F)c(C(F)F)nn2C)CC3)CC1(C)C [Example 56-F, (R)-6-(3-(difluoromethyl)-4-fluoro-1-methyl-1H-pyrazol-5-yl)-2-(3,5-dimethyl-1H-indazol-4-yl)-4-(4-methoxy-3,3-dimethylpiperidin-1-yl)-5,6,7,8-tetrahydropyrido[4,3-d]pyrimidine]
14 | 29 | 23 | Cc1ccc(C(C)C)cc1N1CCc2nc(-c3c(C)ccc4[nH]nc(C)c34)nc(OCC(F)F)c2C1 [Example 63-E, 4-(2,2-difluoroethoxy)-2-(3,5-dimethyl-1H-indazol-4-yl)-6-(5-isopropyl-2-methylphenyl)-5,6,7,8-tetrahydropyrido[4,3-d]pyrimidine]
15 | 197 | 31 | CNCCOc1nc(-c2c(C)ccc3[nH]nc(C)c23)nc2c1CN(c1cc(C(C)C)ccc1C)CC2 [Example 63-G, 2-((2-(3,5-dimethyl-1H-indazol-4-yl)-6-(5-isopropyl-2-methylphenyl)-5,6,7,8-tetrahydropyrido[4,3-d]pyrimidin-4-yl)oxy)-N-methylethanamine]
16 | 60 | 32 | Cc1ccc(C(C)C)cc1N1CCc2nc(-c3c(C)ccc4[nH]nc(C)c34)nc(OCCN3CCOCC3)c2C1 [Example 63-I, 4-(2-((2-(3,5-dimethyl-1H-indazol-4-yl)-6-(5-isopropyl-2-methylphenyl)-5,6,7,8-tetrahydropyrido[4,3-d]pyrimidin-4-yl)oxy)ethyl)morpholine]
17 | 30 | 1 | Cc1ccc(C(C)C)cc1N1CCc2nc(-c3c(C)ccc4[nH]nc(C)c34)nc(N3CC(N(C)C)C3)c2C1 [Example 65-A, 1-(2-(3,5-Dimethyl-1H-indazol-4-yl)-6-(5-isopropyl-2-methylphenyl)-5,6,7,8-tetrahydropyrido[4,3-d]pyrimidin-4-yl)-N,N-dimethylazetidin-3-amine]
18 | 16 | 2 | Cc1ccc(C(C)C)cc1N1CCc2nc(-c3c(C)ccc4[nH]nc(C)c34)nc(N3CC[C@@H](N(C)C)C3)c2C1 [Example 65-B, (R)-1-(2-(3,5-dimethyl-1H-indazol-4-yl)-6-(5-isopropyl-2-methylphenyl)-5,6,7,8-tetrahydropyrido[4,3-d]pyrimidin-4-yl)-N,N-dimethylpyrrolidin-3-amine]
19 | 26 | 2 | Cc1ccc(C(C)C)cc1N1CCc2nc(-c3c(C)ccc4[nH]nc(C)c34)nc(N3CCOC[C@H]3C)c2C1 [Example 65-K, (R)-4-(2-(3,5-dimethyl-1H-indazol-4-yl)-6-(5-isopropyl-2-methylphenyl)-5,6,7,8-tetrahydropyrido[4,3-d]pyrimidin-4-yl)-3-methylmorpholine]
20 | 17 | 2 | CCOC1CN(c2nc(-c3c(C)ccc4[nH]nc(C)c34)nc3c2CN(c2c(Cl)c(C4CC4)nn2C)CC3)C1 [Example 68-B, 6-(4-Chloro-3-cyclopropyl-1-methyl-1H-pyrazol-5-yl)-2-(3,5-dimethyl-1H-indazol-4-yl)-4-(3-ethoxyazetidin-1-yl)-5,6,7,8-tetrahydropyrido[4,3-d]pyrimidine]
21 | 69 | 16 | Cc1ccc2[nH]nc(C)c2c1-c1nc2c(c(N3CC[C@@H](N(C)C)C3)n1)CN(c1c(Cl)c(C3CC3)nn1C)CC2 [Example 68-C, (R)-1-(6-(4-chloro-3-cyclopropyl-1-methyl-1H-pyrazol-5-yll)-2-(3,5-dimethyl-1H-indazol-4-yl)-5,6,7,8-tetrahydropyrido[4,3-d]pyrimidin-4-yl)-N,N-dimethylpyrrolidin-3-amine]
22 | 112 | 67 | Cc1ccc2[nH]nc(C)c2c1-c1nc2c(c(N3CC(N(C)C)C3)n1)CN(c1c(Cl)c(C3CC3)nn1C)CC2 [Example 69-J, 1-(6-(4-chloro-3-cyclopropyl-1-methyl-1H-pyrazol-5-yl)-2-(3,5-dimethyl-1H-indazol-4-yl)-5,6,7,8-tetrahydropyrido[4,3-d]pyrimidin-4-yl)-N,N-dimethylazetidin-3-amine]
23 | 19 | 9 | CCn1nc(C2CC2)c(Cl)c1N1CCc2nc(-c3c(C)ccc4[nH]nc(C)c34)nc(N3CCOC[C@H]3C)c2C1 [Example 70-G, (R)-4-(6-(4-Chloro-3-cyclopropyl-1-ethyl-1H-pyrazol-5-yl)-2-(3,5-dimethyl-1H-indazol-4-yl)-5,6,7,8-tetrahydropyrido[4,3-d]pyrimidin-4-yl)-3-methylmorpholine]
24 | 39 | 12 | Cc1ccc2[nH]nc(C)c2c1-c1nc2c(c(N3CCOC[C@H]3C)n1)CN(c1c(Cl)c(C3CC3)nn1C)CC2 [Example 70-J]

Row | SMILES | IC50 [1] [nM] | IC50 [2] [nM]
25 | CO[C@H]1C[C@H]2CC[C@@H](C1)N2c1nc(-c2c(C)ccc3[nH]nc(C)c23)nc2c1CN(c1c(F)c(C3CC3)nn1C)CC2 [Example 56-B] | 45 | 2
